In patent publication US7033829B2, “Method to inhibit cell growth using oligonucleotides” (Trustees of Boston University, priority 2000, dated 2006):
Oligonucleotides are written 5' to 3', each unit as a sugar letter and its base; * is a phosphorothioate linkage, no mark a phosphodiester; rarer units and linkages stand in square brackets, end groups in braces. Plain capitals give the bases only. d = 2'-deoxy (DNA); {P} = phosphate

Key:
p95/Nbs1 = experiment: Modification / phosphorylation of p95/Nbs1 (western blot); assay type: cell-based, human
Experimental: Cells were plated at a density of 180,000 cells/ml in RPMI 1640 medium supplemented with 3% FBS. Cells were treated with 40 μM of either of the oligonucleotides for 72 hours. Cells were then collected, washed and fixed for 30 minutes in 4% paraformaldehyde and then permeabilized with 0.1% Triton X-100 for 2 minutes. The TUNEL assay was carried out with components and instructions of the In Situ Cell Death Detection Kit using fluorescein-labeled dUTP from Boehringer Mannheim. TUNEL-positive cells were detected by FACS analysis and confocal microscopy. Cellular Uptake of Oligonucleotides For confocal analysis, Jurkat cells were plated on Permanox chamber slides (Lab-Tek, Naperville, Ill.) and treated for 4 hours with fluorescein phosphoramidite (FAM)-labeled oligonucleotides (Research Genetics, Inc., Huntsville, Ala.). […] Uptake of the oligonucleotides was assessed in 5–10 μm sections with a Carl Zeiss LSM 510 confocal laser microscope. […] Fluorescence was measured on the FL-1 channel. […] Antibody Ab-6 (DO-1 clone, Oncogene Research Products, Cambridge, Mass.) detected p53; antibody KH95 (Santa Cruz Biotechnology, Inc., Santa Cruz, Calif.) detected E2F1; antibody Ab-4 (Oncogene Research products) detected p73. Phospho-p53 (serine 15) was detected using the #9284 polyclonal antibody and phospho-p95/Nbs1 (serine 343) was detected by a phospho-p95/Nbs1-specific polyclonal antibody, both antibodies from Cell Signaling Technology (Beverly, Mass.). p95/Nbs1 antibody (#NB-100-143, Novus Biologicals, Littleton, Colo.) and an actin antibody (I-19, Santa Cruz Biotechnology, Santa Cruz, Calif.) were also used. […] After the indicated times, total protein was collected and analyzed by 8% PAGE and western blot using a polyclonal antibody to p95/Nbs1 (#NB-100-143, Novus Biologicals, Littleton, Colo.). […] Telomere length was determined essentially as described by van Steensel and de Lange (van Steensel, B. and T. de Lange. 1997, Nature 385: 740–743) using the Telo TAGGG Telomere Length Assay from Roche Molecular Biochemicals (Indianapolis, Ind.) and the protocol supplied by the manufacturer. […]

[1] = system: pCMV-Luc plasmid in human newborn fibroblasts; experiment: Repair of singlet oxygen-damaged pCMV-Luc plasmid in fibroblasts; assay type: cell-based; details: 100 μM 48 hours
Experimental: The plasmid pCMV-Luc is a non-replicating vector containing a reporter gene, luciferase, under the control of a strong constitutive cytomegalovirus promoter (gift of Dr. Hedayati, Johns Hopkins University). Singlet oxygen-induced DNA damage of the plasmid was generated by irradiating the plasmid with visible light for different time intervals (0 min, 10 min and 20 min), in the presence of the photosensitizer methylene blue. Fibroblasts (human newborn), pretreated for 48 hours with 100 μM pTpT or with diluent alone, were transfected with 0.5 μg of pCMV-Luc using Lipofect Aminem (Promega, Madison, Wis.). After two days, plasmid-encoded luciferase activity was determined in cell extracts (Promega luciferase assay). Pretreatment with pTpT enhanced the repair of singlet oxygen-induced DNA damage after […] by 179% and 228% respectively. FIG. 26 represents luciferase activity as a percent of luciferase activity assayed in fibroblasts transfected with sham irradiated plasmid.

p53 = p53 (Homo sapiens, UniProt P04637); experiment: p53 assay using hGH reporter plasmid in p53-transfected H1299 cells; assay type: cell-based; parameters: expressed in transfected cells; host or cells: H1299 lung carcinoma cells (p53-null); vector from Dr. Bert Vogelstein; details: 100 μM; 24 hours
Experimental: H1299 cells were similarly transfected with p53 expression vector or control vector. Two days after the transfection these cells were cotransfected with pPG-GH and PSV-β-galactosidase control vector, and treated with 100 μM pTpT. Twenty-four hours later, 250 μl of the medium and the cell lysate were harvested and processed as described above.

[2] = system: p53-null H1299 lung carcinoma cells; experiment: Cell growth of p53-null H1299 cells; assay type: cell-based, human; details: 100 μM; days 1–4
Description: Both the GADD 45 and SDI 1 genes are known to be transcriptionally regulated by the tumor suppressor protein p53. After UV- and γ-irradiation, as well as treatment of cells with DNA-damaging chemical agents, there is a rapid stabilization, phosphorylation and nuclear accumulation of p53 after which this protein binds to specific promoter consensus sequences and modulates the transcription of regulated genes. […] In order to determine whether the inhibitory effect of the dinucleotide pTpT on cell proliferation is mediated in part through p53, the growth response of a p53 null cell line, H1299 lung carcinoma cells, was examined. The p53-null H1299 cells (Sanchez, Y. et al., Science 271:357–360 (1996)) were maintained in DMEM with 10% calf serum. Preconfluent cultures were given fresh medium supplemented with either 100 μM pTpT or diluent. Cells were collected on consecutive days by trypsinization, and counted by Coulter™ counter.

Chain of p53 (P04637 whole entry): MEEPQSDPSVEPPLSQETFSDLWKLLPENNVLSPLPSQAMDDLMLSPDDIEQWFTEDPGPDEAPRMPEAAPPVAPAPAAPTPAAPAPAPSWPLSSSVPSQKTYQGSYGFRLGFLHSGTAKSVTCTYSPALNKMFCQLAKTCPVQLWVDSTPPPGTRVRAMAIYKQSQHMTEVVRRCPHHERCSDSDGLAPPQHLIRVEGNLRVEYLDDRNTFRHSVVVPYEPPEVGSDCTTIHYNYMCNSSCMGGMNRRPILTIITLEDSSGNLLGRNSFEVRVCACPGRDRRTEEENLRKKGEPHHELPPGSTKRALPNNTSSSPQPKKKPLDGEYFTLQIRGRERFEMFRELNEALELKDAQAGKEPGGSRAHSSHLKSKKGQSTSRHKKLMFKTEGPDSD

Substance	shift in p95/Nbs1 migration (p95/Nbs1; Jurkat cells, 48, 72 and 96 hours)	shift in p95/Nbs1 migration (p95/Nbs1; SCC12F cells)	phosphorylation of p95/Nbs1 (phospho-specific antibody) (p95/Nbs1; fibroblasts)	enhanced repair of singlet oxygen-induced DNA damage ([1]; 10 mJ/cm^2) [%]	enhanced repair of singlet oxygen-induced DNA damage ([1]; 20 mJ/cm^2) [%]	increase in hGH secretion compared to diluent-treated cells (p53) [%]	proliferation compared to diluent-treated controls [2]
pGTTAGGGTTAG (DNA {P}-dGdTdTdAdGdGdGdTdTdAdG) [SEQ ID NO: 5]	detects such a shift in p95/Nbs1 migration	respond identically	phosphorylation of p95/Nbs1 is induced	–	–	–	–
thymidine dinucleotide [pTpT]	–	–	–	179	228	40	no inhibition of proliferation
